Key:
[1] = molecular target: T1, [NEK7]-[compound of formula (I)]-[CRBN/DDB1] complex (Homo sapiens, UniProt Q8TDX7+Q96SW2); assay: AlphaLISA dose response ternary complex formation assay; assay type: binding; settings: 1 μM compound; normalized to maximum signal of Compound 2 (positive control) and DMSO background; read-out: Normalized AlphaLISA ternary complex average signal at 1 μM molecule
How it was run: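 Biotinylated NEK7 (200 nM) on streptavidin donor beads and 6×His-CRBN/Strep-DDB1 (200 nM) on anti-His acceptor beads, each at 40 μg/ml and preincubated 30 min, then mixed and added to compound in HBS pH 7.4, 0.1% Tween-20, 1 mM DTT, 2% DMSO. After 30 min at 25 °C, AlphaLISA signal was read (ex 680/em 615 nm) and normalised to DMSO background and maximal Compound 2 signal.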

[2] = molecular target: T1, [NEK7]-[compound of formula (I)]-[CRBN/DDB1] complex; assay: HTRF ternary complex assay; assay type: binding; settings: dose-response, 180 min at 25° C.; read-out: HTRF ternary complex Average pEC50 by molecule (converted)
How it was run: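 Mix of 24 nM NEK7, 52.8 nM 6×His-CRBN/Strep-DDB1, 3 nM streptavidin-Eu cryptate and 6.67 nM anti-6×His-d2 in PPI Europium detection buffer with 1 mM DTT, dose-response compound, 0.5% DMSO, 180 min at 25° C. TR-FRET (665/620) read, normalized to DMSO background, Hill-slope fit gave EC50/pEC50.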

T1 sequence (Q8TDX7 whole entry): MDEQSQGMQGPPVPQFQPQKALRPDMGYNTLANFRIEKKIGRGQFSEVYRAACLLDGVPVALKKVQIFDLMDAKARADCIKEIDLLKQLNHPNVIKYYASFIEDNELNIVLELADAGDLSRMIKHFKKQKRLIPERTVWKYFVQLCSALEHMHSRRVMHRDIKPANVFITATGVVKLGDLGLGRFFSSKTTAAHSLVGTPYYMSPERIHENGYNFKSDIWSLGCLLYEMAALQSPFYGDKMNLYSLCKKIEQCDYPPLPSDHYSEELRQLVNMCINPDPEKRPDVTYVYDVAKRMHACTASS
T1 sequence (Q96SW2 whole entry): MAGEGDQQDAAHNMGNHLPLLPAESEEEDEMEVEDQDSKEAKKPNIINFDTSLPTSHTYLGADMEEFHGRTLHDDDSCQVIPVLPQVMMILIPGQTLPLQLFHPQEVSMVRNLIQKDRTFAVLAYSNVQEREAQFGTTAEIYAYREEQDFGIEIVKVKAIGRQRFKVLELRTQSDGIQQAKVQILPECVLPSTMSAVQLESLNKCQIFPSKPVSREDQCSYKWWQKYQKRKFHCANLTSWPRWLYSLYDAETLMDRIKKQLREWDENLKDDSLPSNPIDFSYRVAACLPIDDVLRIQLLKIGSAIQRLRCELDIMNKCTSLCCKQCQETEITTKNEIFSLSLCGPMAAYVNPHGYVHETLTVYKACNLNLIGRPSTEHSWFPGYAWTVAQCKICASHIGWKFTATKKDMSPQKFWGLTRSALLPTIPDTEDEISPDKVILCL
T1 sequence (Q16531 whole entry partner): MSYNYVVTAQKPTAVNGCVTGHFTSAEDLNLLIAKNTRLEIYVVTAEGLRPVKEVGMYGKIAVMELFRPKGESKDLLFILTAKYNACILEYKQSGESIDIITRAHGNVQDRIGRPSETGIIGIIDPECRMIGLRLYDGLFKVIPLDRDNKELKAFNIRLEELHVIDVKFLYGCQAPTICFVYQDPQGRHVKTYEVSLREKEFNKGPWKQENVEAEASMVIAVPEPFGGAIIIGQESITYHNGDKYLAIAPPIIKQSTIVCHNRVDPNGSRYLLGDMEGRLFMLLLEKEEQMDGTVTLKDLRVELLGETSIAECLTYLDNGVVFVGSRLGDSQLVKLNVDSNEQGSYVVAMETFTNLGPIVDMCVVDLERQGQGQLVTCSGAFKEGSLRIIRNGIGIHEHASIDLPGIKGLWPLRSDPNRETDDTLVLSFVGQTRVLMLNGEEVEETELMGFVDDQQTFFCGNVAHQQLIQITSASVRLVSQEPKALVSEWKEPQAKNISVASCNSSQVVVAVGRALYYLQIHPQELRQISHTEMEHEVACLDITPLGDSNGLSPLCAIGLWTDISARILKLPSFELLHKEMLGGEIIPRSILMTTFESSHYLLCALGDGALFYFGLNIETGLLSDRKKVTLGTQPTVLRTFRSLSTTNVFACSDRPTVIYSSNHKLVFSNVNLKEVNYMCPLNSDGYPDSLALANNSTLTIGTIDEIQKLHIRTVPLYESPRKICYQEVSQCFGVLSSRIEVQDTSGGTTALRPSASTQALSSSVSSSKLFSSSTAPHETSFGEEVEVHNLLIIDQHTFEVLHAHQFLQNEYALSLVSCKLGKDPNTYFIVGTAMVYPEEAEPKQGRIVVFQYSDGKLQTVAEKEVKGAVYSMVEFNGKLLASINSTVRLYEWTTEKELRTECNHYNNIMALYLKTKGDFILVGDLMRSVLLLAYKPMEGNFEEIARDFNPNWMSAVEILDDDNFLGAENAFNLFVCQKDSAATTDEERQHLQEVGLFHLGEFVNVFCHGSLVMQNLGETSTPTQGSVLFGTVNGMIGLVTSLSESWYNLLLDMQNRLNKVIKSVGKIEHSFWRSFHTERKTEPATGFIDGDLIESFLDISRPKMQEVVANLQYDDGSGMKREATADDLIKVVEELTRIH

| SMILES | activation at 1 µM [1] | EC50 [2] |
| --- | --- | --- |
| O=C1CCC(N2Cc3cc(C4CCCCN4)ccc3C2=O)C(=O)N1 (centres unmarked) [Compound 2, 3-(1-oxo-5-(piperidin-2-yl)isoindolin-2-yl)piperidine-2,6-dione] | > 80% | 316 to 1000 nM |
| Cc1c(C2CCCCN2)ccc2c1CN(C1CCC(=O)NC1=O)C2=O (centres unmarked) [Compound 19, 3-(4-methyl-1-oxo-5-(piperidin-2-yl)isoindolin-2-yl)piperidine-2,6-dione] | < 10% | > 3160 nM |
| CC1c2cc(C3CCCCO3)ccc2C(=O)N1C1CCC(=O)NC1=O (centres unmarked) [Compound 64, 3-(3-methyl-1-oxo-5-(tetrahydro-2H-pyran-2-yl)isoindolin-2-yl)piperidine-2,6-dione] | > 80% | 316 to 1000 nM |
| CC1c2cc(C3CCCCN3)ccc2C(=O)N1C1CCC(=O)NC1=O (centres unmarked) [Compound 25, 3-(3-methyl-1-oxo-5-(piperidin-2-yl)isoindolin-2-yl)piperidine-2,6-dione] | > 80% | 316 to 1000 nM |
| O=C1CCC(N2Cc3cc(-c4ccccn4)ccc3C2=O)C(=O)N1 (centres unmarked) [2(2), 3-(1-oxo-5-(pyridin-2-yl)isoindolin-2-yl)piperidine-2,6-dione] | > 80% | 316 to 1000 nM |
| O=C1CCC(N2Cc3cc(-c4ccc(-c5ccccc5)cn4)ccc3C2=O)C(=O)N1 (centres unmarked) [4(2), 3-(1-oxo-5-(5-phenylpyridin-2-yl)isoindolin-2-yl)piperidine-2,6-dione] | > 80% | 100 to 316 nM |
| O=C1CCC(N2Cc3cc(C4CCCCN4)c(F)cc3C2=O)C(=O)N1 (centres unmarked) [Compound 23, 3-(6-fluoro-1-oxo-5-(piperidin-2-yl)isoindolin-2-yl)piperidine-2,6-dione] | < 10% | > 3160 nM |
